Results published in ChEMBL document CHEMBL1201862, “PubChem BioAssay data set” (2004).
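Exposure lasted 48 hours, with cells grown in 96-well plates and compounds tested at five concentrations. The concentration for 50% growth inhibition is given as GI50.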 Activity calls are given as the source filed them. Cut-off read from the data, not from the text of the source: active = GI50 up to about 1.1 µM and inactive = higher.

Columns and labels:
Assay in all cases: growth of human tumour cells (NCI), 48 h
[1] = tested on: 786-0
[2] = tested on: A549
[3] = tested on: EKVX
[4] = tested on: HCT-15
[5] = tested on: HOP-62
[6] = tested on: HT-29
[7] = tested on: LOX IMVI
[8] = tested on: MOLT-4
[9] = tested on: Malme-3M
[10] = tested on: NCI-H23
[11] = tested on: RPMI-8226
[12] = tested on: SF-295
[13] = tested on: SK-MEL-2
[14] = tested on: SR
[15] = tested on: TK-10
[16] = tested on: U-251
[17] = tested on: UACC-62
[18] = tested on: MDA-MB-231

| Structure (SMILES) | GI50 [1] | GI50 [2] | GI50 [3] | GI50 [4] [µM] | GI50 [5] | GI50 [6] | GI50 [7] | GI50 [8] | GI50 [9] | GI50 [10] | GI50 [11] | GI50 [12] | GI50 [13] | GI50 [14] | GI50 [15] | GI50 [16] | GI50 [17] | GI50 [18] |
| --- | --- | --- | --- | --- | --- | --- | --- | --- | --- | --- | --- | --- | --- | --- | --- | --- | --- | --- |
| COC(=O)C(Cc1nc2ccccc2nc1O)C(=O)C(=O)Nc1ccc(OC)cc1[N+](=O)[O-] (stereo not given) | > 100 µM (inactive) | > 100 µM (inactive) | > 100 µM (inactive) | > 100 | > 100 µM (inactive) | 82.8 µM (inactive) | > 100 µM (inactive) | > 100 µM (inactive) | > 100 µM (inactive) | > 100 µM (inactive) | > 100 µM (inactive) | > 100 µM (inactive) | > 100 µM (inactive) | > 100 µM (inactive) | > 100 µM (inactive) | > 100 µM (inactive) | > 100 µM (inactive) | – |
| COc1cc(C)c(C)c(OC(=O)c2c(C)c(C)c(OC)c(C)c2OC)c1C | 12.3 µM (inactive) | 4.11 µM (inactive) | 15.3 µM (inactive) | 3.68 | 15 µM (inactive) | 3.85 µM (inactive) | 4.75 µM (inactive) | 9.31 µM (inactive) | 6.9 µM (inactive) | 10.4 µM (inactive) | 13.6 µM (inactive) | 3.92 µM (inactive) | 5.04 µM (inactive) | 4.23 µM (inactive) | 25.6 µM (inactive) | 3.74 µM (inactive) | 6.71 µM (inactive) | – |
| Cc1c(Cl)ccc2c1NC(=O)C2(O)CC(=O)c1ccc(Cl)cc1 (stereo not given) | 47.1 µM (inactive) | > 100 µM (inactive) | > 55.8 µM (inactive) | 28.2 | 97.3 µM (inactive) | 35 µM (inactive) | 19.7 µM (inactive) | 17.7 µM (inactive) | 37.8 µM (inactive) | 54.5 µM (inactive) | 30.8 µM (inactive) | 24.8 µM (inactive) | > 46 µM (inactive) | 13.9 µM (inactive) | > 100 µM (inactive) | 60.8 µM (inactive) | 33.5 µM (inactive) | – |
| NC1CC(n2ccc(=O)[nH]c2=O)OC1C(O)CO (stereo not given) | > 100 µM (inactive) | > 100 µM (inactive) | > 100 µM (inactive) | > 100 | > 100 µM (inactive) | > 100 µM (inactive) | > 100 µM (inactive) | > 100 µM (inactive) | > 100 µM (inactive) | > 100 µM (inactive) | > 100 µM (inactive) | > 100 µM (inactive) | > 100 µM (inactive) | > 100 µM (inactive) | > 100 µM (inactive) | > 100 µM (inactive) | > 100 µM (inactive) | – |
| CC(=O)Nc1ccc(/C=C/C(=O)c2sc(-n3nc(-c4ccccc4)cc3-c3ccccc3)nc2C)cc1 | > 10 µM (inactive) | > 10 µM (inactive) | 8.99 µM (inactive) | > 10 | > 10 µM (inactive) | 84.7 µM (inactive) | > 10 µM (inactive) | > 10 µM (inactive) | > 10 µM (inactive) | > 10 µM (inactive) | > 10 µM (inactive) | > 10 µM (inactive) | > 10 µM (inactive) | > 10 µM (inactive) | > 10 µM (inactive) | > 10 µM (inactive) | > 10 µM (inactive) | – |
| CCCCc1c2c(nc3c1CCc1cc4c(nc1-3)-c1nc3c(c(CCCC)c1CC4)CCC/C3=C\c1ccccc1)/C(=C/c1ccccc1)CCC2 | 25.2 µM (inactive) | > 100 µM (inactive) | > 100 µM (inactive) | > 100 | 36.9 µM (inactive) | 85.3 µM (inactive) | > 100 µM (inactive) | > 100 µM (inactive) | > 100 µM (inactive) | 73.5 µM (inactive) | > 100 µM (inactive) | 78.9 µM (inactive) | 35.2 µM (inactive) | > 100 µM (inactive) | 51.2 µM (inactive) | 47.3 µM (inactive) | 97.3 µM (inactive) | – |
| CCOc1ccc2nc(NC(=O)C(=O)C(c3cnc4ccccc4n3)[N+](=O)[O-])sc2c1 (stereo not given) | > 100 µM (inactive) | > 100 µM (inactive) | 96.8 µM (inactive) | > 100 | > 100 µM (inactive) | > 100 µM (inactive) | 61 µM (inactive) | 53.1 µM (inactive) | > 100 µM (inactive) | 74.5 µM (inactive) | 61.5 µM (inactive) | > 100 µM (inactive) | > 100 µM (inactive) | – | > 100 µM (inactive) | – | > 100 µM (inactive) | > 100 µM (inactive) |
| N#CC12CCC(O)C(CC1)C2=O (stereo not given) | > 100 µM (inactive) | > 100 µM (inactive) | > 100 µM (inactive) | > 100 | > 100 µM (inactive) | > 100 µM (inactive) | 21.5 µM (inactive) | > 100 µM (inactive) | > 100 µM (inactive) | > 100 µM (inactive) | 26.9 µM (inactive) | > 100 µM (inactive) | > 100 µM (inactive) | 27.3 µM (inactive) | > 100 µM (inactive) | > 100 µM (inactive) | > 100 µM (inactive) | – |
